Experimental data from ChEMBL document CHEMBL1136550, “Discovery of orally bioavailable NK1 receptor antagonists” (Bioorg Med Chem Lett, 2003).
Converted amounts (≈) assume the structure as drawn.

Assays:
Substance-P receptor [1] = biological target: T1, Substance-P receptor (Homo sapiens, UniProt P25103); assay: Displacement of [3H]-substance P from human NK1 receptor expressed in CHO cells; format: cell-based
Substance-P receptor [2] = biological target: T1, Substance-P receptor; assay: Displacement of [3H]-substance P from human NK1 receptor expressed in CHO cells, at 10e-5 M; format: cell-based
[3] = LogD distribution coefficient between octanol and PBS at pH7.4; format: physicochemical; settings: pH 7.4, read-out: LogD7.4
[4] = pKa value was evaluated; format: physicochemical
Caco-2 = assay: Caco-2 permeability was measured; format: functional, cell-based; settings: Homo sapiens
[5] = Solubility was measured; format: physicochemical
Rattus norvegicus = species on record: Rattus norvegicus; assay: Inhibition of contraction induced by 100 mM KCl in isolated rat aorta; format: functional
Cavia porcellus [6] = assay: Inhibition of SP-induced pulmonary edema in guinea-pig 30 min after oral administration at a dose of 1 mg/kg; format: functional; settings: 0.5 h
Cavia porcellus [7] = assay: Inhibition of SP-induced pulmonary edema in guinea-pig 60 min after oral administration at a dose of 1 mg/kg; format: functional; settings: 1 h
Cavia porcellus [8] = assay: Inhibition of SP-induced pulmonary edema in guinea-pig 240 min after oral administration at a dose of 1 mg/kg; format: functional; settings: 4 h
Cavia porcellus [9] = assay: Inhibition of SP-induced pulmonary edema in guinea-pig 240 min after oral administration at a dose of 10 mg/kg; format: functional; settings: 4 h
Cavia porcellus [10] = assay: Inhibition of SP-induced pulmonary edema in guinea-pig 30 min after oral administration at a dose of 10 mg/kg; format: functional; settings: 0.5 h
Cavia porcellus [11] = assay: Inhibition of SP-induced pulmonary edema in guinea-pig 60 min after oral administration at a dose of 10 mg/kg; format: functional; settings: 1 h
Cavia porcellus [12] = assay: Inhibition of SP-induced pulmonary edema in guinea-pig 120 min after oral administration at a dose of 10 mg/kg; format: functional; settings: 2 h

T1 sequence (P25103 whole entry): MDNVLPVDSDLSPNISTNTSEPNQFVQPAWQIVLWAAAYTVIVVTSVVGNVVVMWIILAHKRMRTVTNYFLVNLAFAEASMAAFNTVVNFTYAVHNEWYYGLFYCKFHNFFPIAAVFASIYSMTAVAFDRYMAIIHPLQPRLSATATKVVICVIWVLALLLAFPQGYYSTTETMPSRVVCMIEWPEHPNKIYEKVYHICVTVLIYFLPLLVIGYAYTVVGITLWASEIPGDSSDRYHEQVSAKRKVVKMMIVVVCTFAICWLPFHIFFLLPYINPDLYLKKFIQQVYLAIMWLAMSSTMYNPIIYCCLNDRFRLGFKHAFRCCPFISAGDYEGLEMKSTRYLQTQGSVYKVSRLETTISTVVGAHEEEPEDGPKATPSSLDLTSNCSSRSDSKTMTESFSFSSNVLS

Fc1ccccc1C(COCc1cc(C(F)(F)F)cc(C(F)(F)F)c1)N1CCNCC1 (stereo not drawn)
Ki (Substance-P receptor [1]): 5.01 nM

Clc1ccccc1COCC(c1ccccc1)N1CCNCC1 (stereo not drawn)
inhibition (Substance-P receptor [2]): 50%

NC(=O)CN1CCN([C@@H](COCc2cc(C(F)(F)F)cc(C(F)(F)F)c2)c2ccccc2)CC1
logD [3]: 3.26 | pKa [4]: 6.2 | Papps (Caco-2): 7.9 ×10⁻⁶ cm/s | Ki (Substance-P receptor [1]): 10 nM | solubility [5]: 2 µg/mL (≈ 4.09 µM) | pD2 (Rattus norvegicus): 4.27

Fc1cc(COCC(c2ccccc2)N2CCNCC2)cc(C(F)(F)F)c1 (stereo not drawn)
Ki (Substance-P receptor [1]): 12.6 nM

Clc1ccc(COCC(c2ccccc2)N2CCNCC2)cc1Cl (stereo not drawn)
Ki (Substance-P receptor [1]): 100 nM

FC(F)(F)c1cc(COCC(c2ccccc2)N2CCN(CCN3CCOCC3)CC2)cc(C(F)(F)F)c1 (stereo not drawn)
Ki (Substance-P receptor [1]): 15.8 nM

FC(F)(F)c1cc(COCC(c2ccc(Cl)c(Cl)c2)N2CCNCC2)cc(C(F)(F)F)c1 (stereo not drawn)
Ki (Substance-P receptor [1]): 6.31 nM

COc1cccc(C(COCc2cc(C(F)(F)F)cc(C(F)(F)F)c2)N2CCNCC2)c1 (stereo not drawn)
Ki (Substance-P receptor [1]): 1 nM

COc1ccccc1COCC(c1ccccc1)N1CCNCC1 (stereo not drawn)
inhibition (Substance-P receptor [2]): < 20%

O=C(O)CCCC(=O)N1CCN(C(COCc2cc(C(F)(F)F)cc(C(F)(F)F)c2)c2ccccc2)CC1 (stereo not drawn)
inhibition (Substance-P receptor [2]): < 20%

O=C(O)CCCCN1CCN(C(COCc2cc(C(F)(F)F)cc(C(F)(F)F)c2)c2ccccc2)CC1 (stereo not drawn)
Ki (Substance-P receptor [1]): 10 nM

FC(F)(F)c1cc(COCC(c2ccco2)N2CCNCC2)cc(C(F)(F)F)c1 (stereo not drawn)
Ki (Substance-P receptor [1]): 158 nM

C[C@@H](OC[C@H](c1ccccc1)N1CCN(CCOCC(=O)O)CC1)c1cc(C(F)(F)F)cc(C(F)(F)F)c1
inhibition (Substance-P receptor [2]): < 20%

N#CCN1CCN(C(COCc2cc(C(F)(F)F)cc(C(F)(F)F)c2)c2ccccc2)CC1 (stereo not drawn)
Ki (Substance-P receptor [1]): 7.94 nM

NC(=O)CN1CCN([C@H](COCc2cc(C(F)(F)F)cc(C(F)(F)F)c2)c2ccccc2)CC1
pKa [4]: 6.2 | Ki (Substance-P receptor [1]): 7.94 nM

Oc1n[nH]c(CN2CCN(C(COCc3cc(C(F)(F)F)cc(C(F)(F)F)c3)c3ccccc3)CC2)n1 (stereo not drawn)
Ki (Substance-P receptor [1]): 15.8 nM

Fc1cccc(C(COCc2cc(C(F)(F)F)cc(C(F)(F)F)c2)N2CCNCC2)c1 (stereo not drawn)
Ki (Substance-P receptor [1]): 2 nM

CCOC(=O)N1CCN(C(COCc2cc(C(F)(F)F)cc(C(F)(F)F)c2)c2ccccc2)CC1 (stereo not drawn)
Ki (Substance-P receptor [1]): 63.1 nM

Fc1cccc(C(COCc2cc(C(F)(F)F)cc(C(F)(F)F)c2)N2CCNCC2)c1F (stereo not drawn)
Ki (Substance-P receptor [1]): 3.16 nM

FC(F)(F)c1cc(COCC(c2ccccc2)N2CCN(Cc3nn[nH]n3)CC2)cc(C(F)(F)F)c1 (stereo not drawn)
Ki (Substance-P receptor [1]): 63.1 nM

C[C@H](OC[C@H](c1ccccc1)N1CCN(CC(=O)O)CC1)c1cc(C(F)(F)F)cc(C(F)(F)F)c1
Ki (Substance-P receptor [1]): 1.26 nM

C[C@H](OC[C@H](c1ccccc1)N1CCN(CCOCC(=O)O)CC1)c1cc(C(F)(F)F)cc(C(F)(F)F)c1
logD [3]: 2.64 | inhibition in vivo at 1 mg/kg (Cavia porcellus [6]): 77% | inhibition in vivo at 1 mg/kg (Cavia porcellus [7]): 75% | inhibition in vivo at 1 mg/kg (Cavia porcellus [8]): 70% | Papps (Caco-2): 8.7 ×10⁻⁶ cm/s | solubility [5]: > 2000 µg/mL | pD2 (Rattus norvegicus): <4

NC(=O)COCCN1CCN(C(COCc2cc(C(F)(F)F)cc(C(F)(F)F)c2)c2ccccc2)CC1 (stereo not drawn)
pKa [4]: 7.4 | Ki (Substance-P receptor [1]): 3.16 nM

COc1cc(COCC(c2ccccc2)N2CCNCC2)cc(OC)c1OC (stereo not drawn)
Ki (Substance-P receptor [1]): 126 nM

COc1ccc(C(COCc2cc(C(F)(F)F)cc(C(F)(F)F)c2)N2CCNCC2)cc1 (stereo not drawn)
Ki (Substance-P receptor [1]): 50.1 nM

COc1c(Br)cc(Br)cc1COCC(c1ccccc1)N1CCNCC1 (stereo not drawn)
Ki (Substance-P receptor [1]): 7.94 nM

COC(=O)CN1CCN(C(COCc2cc(C(F)(F)F)cc(C(F)(F)F)c2)c2ccccc2)CC1 (stereo not drawn)
Ki (Substance-P receptor [1]): 39.8 nM

FC(F)(F)c1cc(COCC(c2cccc3ccccc23)N2CCNCC2)cc(C(F)(F)F)c1 (stereo not drawn)
Ki (Substance-P receptor [1]): 1.58 nM

COc1ccccc1C(COCc1cc(C(F)(F)F)cc(C(F)(F)F)c1)N1CCNCC1 (stereo not drawn)
Ki (Substance-P receptor [1]): 6.31 nM

COc1cc(CN2CCN(C(COCc3cc(C(F)(F)F)cc(C(F)(F)F)c3)c3ccccc3)C(Cc3ccccc3)C2)cc(OC)c1OC (stereo not drawn)
logD [3]: 5.2 | Ki (Substance-P receptor [1]): 251 nM | solubility [5]: 0.6 µg/mL (≈ 0.854 µM)

FC(F)(F)c1cc(COCC(c2ccccc2)N2CCNCC2)cc(C(F)(F)F)c1 (stereo not drawn)
logD [3]: 2.41 | Papps (Caco-2): 2.1 ×10⁻⁶ cm/s | solubility [5]: 200 µg/mL (≈ 463 µM) | pD2 (Rattus norvegicus): 5.38

FC(F)(F)Oc1ccccc1COCC(c1ccccc1)N1CCNCC1 (stereo not drawn)
inhibition (Substance-P receptor [2]): 50%

FC(F)(F)c1cc(COCC(c2ccccc2)N2CCN(CCCCc3nn[nH]n3)CC2)cc(C(F)(F)F)c1 (stereo not drawn)
logD [3]: 2.71 | Ki (Substance-P receptor [1]): 6.31 nM | solubility [5]: 200 µg/mL (≈ 359 µM)

Cc1cc(C)cc(COCC(c2ccccc2)N2CCNCC2)c1 (stereo not drawn)
Ki (Substance-P receptor [1]): 25.1 nM

FC(F)(F)c1cc(COCC(c2ccccc2)N2CCN(Cc3ccccn3)CC2)cc(C(F)(F)F)c1 (stereo not drawn)
Ki (Substance-P receptor [1]): 2 nM

Fc1cc(F)cc(COCC(c2ccccc2)N2CCNCC2)c1 (stereo not drawn)
Ki (Substance-P receptor [1]): 200 nM

c1ccc(COCC(c2ccccc2)N2CCNCC2)cc1 (stereo not drawn)
inhibition (Substance-P receptor [2]): < 20%

Clc1cc(Cl)cc(COCC(c2ccccc2)N2CCNCC2)c1 (stereo not drawn)
Ki (Substance-P receptor [1]): 3.16 nM

C[C@H](OC[C@@H](c1ccccc1)N1CCN(CC(=O)O)CC1)c1cc(C(F)(F)F)cc(C(F)(F)F)c1
Ki (Substance-P receptor [1]): 3.16 nM

C[C@@H](OC[C@H](c1ccccc1)N1CCN(CC(=O)O)CC1)c1cc(C(F)(F)F)cc(C(F)(F)F)c1
inhibition (Substance-P receptor [2]): < 20%

Cc1ccccc1C(COCc1cc(C(F)(F)F)cc(C(F)(F)F)c1)N1CCNCC1 (stereo not drawn)
Ki (Substance-P receptor [1]): 1 nM

CCCCN1CCN(C(COCc2cc(C(F)(F)F)cc(C(F)(F)F)c2)c2ccccc2)CC1 (stereo not drawn)
logD [3]: 4.09 | inhibition in vivo at 10 mg/kg (Cavia porcellus [9]): 58% | Papps (Caco-2): 5.2 ×10⁻⁶ cm/s | inhibition in vivo at 10 mg/kg (Cavia porcellus [10]): 62% | Ki (Substance-P receptor [1]): 2.51 nM | solubility [5]: 1 µg/mL (≈ 2.05 µM) | pD2 (Rattus norvegicus): 4.6

FC(F)(F)c1cc(COCC(c2ccccc2)N2CCN(CCCCc3nnn[nH]3)CC2)cc(C(F)(F)F)c1 (stereo not drawn)
inhibition in vivo at 10 mg/kg (Cavia porcellus [9]): 20% | Papps (Caco-2): 2.6 ×10⁻⁶ cm/s | inhibition in vivo at 10 mg/kg (Cavia porcellus [11]): 99% | inhibition in vivo at 10 mg/kg (Cavia porcellus [10]): 65% | inhibition in vivo at 10 mg/kg (Cavia porcellus [12]): 65% | pD2 (Rattus norvegicus): <4

Clc1cccc(COCC(c2ccccc2)N2CCNCC2)c1 (stereo not drawn)
Ki (Substance-P receptor [1]): 398 nM

Brc1cc(Br)cc(COCC(c2ccccc2)N2CCNCC2)c1 (stereo not drawn)
Ki (Substance-P receptor [1]): 5.01 nM

C[C@@H](OC[C@@H](c1ccccc1)N1CCN(CC(=O)O)CC1)c1cc(C(F)(F)F)cc(C(F)(F)F)c1
inhibition (Substance-P receptor [2]): < 20%

O=C(O)CN1CCN(C(COCc2cc(C(F)(F)F)cc(C(F)(F)F)c2)c2ccccc2)CC1 (stereo not drawn)
logD [3]: 2.35 | inhibition in vivo at 10 mg/kg (Cavia porcellus [9]): 53% | Papps (Caco-2): 9.6 ×10⁻⁶ cm/s | inhibition in vivo at 10 mg/kg (Cavia porcellus [11]): 76% | inhibition in vivo at 10 mg/kg (Cavia porcellus [10]): 84% | Ki (Substance-P receptor [1]): 15.8 nM | inhibition in vivo at 10 mg/kg (Cavia porcellus [12]): 68% | solubility [5]: 1300 µg/mL (≈ 2650 µM) | pD2 (Rattus norvegicus): <4

FC(F)(F)c1ccc(COCC(c2ccccc2)N2CCNCC2)c(C(F)(F)F)c1 (stereo not drawn)
Ki (Substance-P receptor [1]): 15.8 nM

FC(F)(F)c1cc(COCC(c2ccccc2Cl)N2CCNCC2)cc(C(F)(F)F)c1 (stereo not drawn)
Ki (Substance-P receptor [1]): 1.58 nM

FC(F)(F)c1cc(COCC(c2cccc(Cl)c2)N2CCNCC2)cc(C(F)(F)F)c1 (stereo not drawn)
Ki (Substance-P receptor [1]): 1.58 nM

FC(F)(F)c1cc(COCC(c2ccc3ccccc3c2)N2CCNCC2)cc(C(F)(F)F)c1 (stereo not drawn)
Ki (Substance-P receptor [1]): 31.6 nM

Fc1ccc(C(COCc2cc(C(F)(F)F)cc(C(F)(F)F)c2)N2CCNCC2)cc1 (stereo not drawn)
Ki (Substance-P receptor [1]): 79.4 nM

NC(=O)N1CCN(C(COCc2cc(C(F)(F)F)cc(C(F)(F)F)c2)c2ccccc2)CC1 (stereo not drawn)
inhibition in vivo at 10 mg/kg (Cavia porcellus [11]): 47% | inhibition in vivo at 10 mg/kg (Cavia porcellus [10]): 15% | Ki (Substance-P receptor [1]): 20 nM | inhibition in vivo at 10 mg/kg (Cavia porcellus [12]): 26%

O=C(O)COCCN1CCN(C(COCc2cc(C(F)(F)F)cc(C(F)(F)F)c2)c2ccccc2)CC1 (stereo not drawn)
logD [3]: 2.17 | inhibition in vivo at 10 mg/kg (Cavia porcellus [9]): 29% | Papps (Caco-2): 4.2 ×10⁻⁶ cm/s | inhibition in vivo at 10 mg/kg (Cavia porcellus [11]): 61% | inhibition in vivo at 10 mg/kg (Cavia porcellus [10]): 53% | Ki (Substance-P receptor [1]): 15.8 nM | inhibition in vivo at 10 mg/kg (Cavia porcellus [12]): 54% | solubility [5]: > 2000 µg/mL | pD2 (Rattus norvegicus): <4

Cc1cccc(C(COCc2cc(C(F)(F)F)cc(C(F)(F)F)c2)N2CCNCC2)c1 (stereo not drawn)
Ki (Substance-P receptor [1]): 3.16 nM

C[C@@H](OC[C@@H](c1ccccc1)N1CCN(CCOCC(=O)O)CC1)c1cc(C(F)(F)F)cc(C(F)(F)F)c1
inhibition (Substance-P receptor [2]): < 20%

FC(F)(F)c1cc(COCC(c2cccs2)N2CCNCC2)cc(C(F)(F)F)c1 (stereo not drawn)
Ki (Substance-P receptor [1]): 7.94 nM

CN1CCN(C(COCc2cc(C(F)(F)F)cc(C(F)(F)F)c2)c2ccccc2)CC1 (stereo not drawn)
Ki (Substance-P receptor [1]): 1.58 nM
